This is an account of results in publication PMC2896951, “The proline-rich peptide Bac7(1-35) reduces mortality from Salmonella typhimurium in a mouse model of infection” (BMC Microbiology, 2010).

Where a SMILES comes first, the peptide text is derived from it. Where no end group is shown, it is not given here.

A short description of data set [1]: Antimicrobial activity of the labelled peptide (data not shown). Type of data set: cell-based.
The test system of data set [2] is E. coli infection; S. typhimurium disease. More on the design: method as in 2 sources, one per row (each row's own in cited_ref): ref 8 = [8]; PMID 12222961; doi:10.1007/s00018-002-8493-8; Otvos L The short proline-rich antibacterial peptide family Cell Mol Life Sci 2002 59 7 1138 1150 10.1007/s00018-002-8493-8 12222961 PMC11337521 ||| ref 22 = [22]; PMID 2934362; doi:10.1093/jac/16.5.615; Easmon CS Blowers A Ciprofloxacin treatment of systemic salmonella infection in sensitive and resistance mice J Antimicrob Chemother 1985 16 5 615 619 10.1093/jac/16.5.615 2934362. As to conditions: Balb/c mice; cited from earlier work. How it is done:
As a first step to evaluate the therapeutic potential of Bac7(1-35), its in vivo toxicity was determined in Balb/c and CBA/Ca mice after injection via i.p. of increasing single peptide doses. […] For ... || The potential of Bac7(1-35) to protect mice from a bacterial challenge was tested by a mouse model of Salmonella infection. Infected mice develop a systemic disease characterized by rapid bacterial multiplication in the liver and spleen that resembles typhoid fever caused by Salmonella serovar Typhi in humans.

Another data set has as its system healthy animals / mice. The conditions noted are these: i.v.; cited from earlier work.
Another data set deals with Balb/c and CBA/Ca mice. In words: In vivo toxicity after single i.p. injection. More on the design: species or system mouse. The protocol: The in vivo toxicity of Bac7(1-35) was investigated by injecting mice via i.p. with increasing amounts of the peptide dissolved in apyrogen PBS (0.2 ml per mouse). The controls received the vehicle alone. Animal behavior and survival were monitored over a 14-day period.

For data set [3] the following is noted: 37°C, Western blot. On the technique in general: A western blot detects proteins with antibodies after separation by electrophoresis.
Procedure: (§1) At different times, aliquots of samples were diluted 1:5 in sample buffer (12% SDS, 6% dithiothreitol, 40% glycerol, 0.05% bromophenol blue, 150 mM Tris-HCl, pH 7), incubated for 15 min at 60°C and analyzed on a 16% Tricine/SDS gel. Proteins were then blotted onto nitrocellulose membrane (Whatman), and incubated overnight with shaking at 4°C in 40 mM Tris-HCl, pH 7.5, 5% non-fat milk, 0.05% Tween 20, 200 mM NaCl (blocking solution). Samples were incubated for 90 min with 1:1000 rabbit anti-Bac7(1-35) IgG, diluted in blocking solution, followed by a HRP-conjugated anti-rabbit IgG (Sigma-Aldrich). The ECL detection system (GE Healthcare) was used to develop the Western blots.
For data set [4] the following is noted: 37°C, several days of incubation.
Procedure: as §1
The next data set is described as follows: in vitro. The protocol:
Bac7(1-35) peptide (50 μg) was incubated in 250 μL of PBS containing 25% (v/v) of murine serum or plasma at 37°C. At different time intervals (0, 1, 2, 4, 8 and 24 h), aliquots of 25 μL (corresponding to 5 μg of peptide) were added to 65 μL of cold 0.5% (v/v) TFA in H2O, kept on ice for 5 min and than centrifuged at 10.000 × g for 5 min. The LC-MS analysis of supernatants were carried out as described, using a standard curve to calculate the peptide concentration.

Data set [5] deals with S. enterica ATCC 14028 in liver and spleen of CBA/Ca mice. In words: Viable colony counts in murine liver and spleen homogenates. The format is in vivo, mouse. The conditions noted are these: 30 mg/kg i.p., 3 days post-inoculation. How it is done: Three days after bacterial infection, a group of 3 untreated and 3 peptide-treated mice were killed by cervical dislocation, and liver and spleen were removed. The organs were weighed, homogenized separately and dissolved in PBS. Suitable dilutions of 50 μL of the homogenate in PBS were plated in duplicate on Mueller-Hinton agar (Difco). The plates were then incubated at 37°C overnight to allow colony counts. Results are expressed as number of CFU/g of organ. This assay was repeated two fold.

Data set [6] relates to Salmonella enterica serovar Typhimurium ATCC 14028. In words: Killing kinetics assay (bactericidal activity) in the presence of biological fluids. The format is cell-based. The conditions noted are these: for reduction of the number of CFU: 10 μM peptide, 1 h incubation, 37°C. The protocol: Murine plasma obtained using 2% (v/v) Na-citrate as an anticoagulant, and serum were prepared and stored at -20°C until use. The bactericidal activity of Bac7(1-35) against Salmonella enterica serovar Typhimurium ATCC 14028 was determined by a killing kinetics assay. Mid-logarithmic phase S. enterica cultures were diluted in murine serum or plasma (66% v/v final concentration) or BSA (40 mg/mL) (Sigma) to give approximately 1 × 10^6 cells/ml, and incubated with 10 μM Bac7(1-35) in a shaking water bath at 37°C for different times. Samples were withdrawn, diluted and plated to allow colony counts.

In data set [7] the test system is S. typhimurium ATCC 14028 infection in CBA/Ca mice. The experiment in a line: Mouse model of typhoid fever, survival. Type of data set: in vivo. How it is done: Inocula containing 10^2 CFU/mouse of S. enterica ATCC 14028, expected to result in 90-100% mortality in 4-6 days for Balb/c and 10-18 days for CBA/Ca, were prepared by diluting log-phase bacterial cultures in sterile PBS. Ten mice were infected intraperitoneally and monitored for survival over a 60-day period after infection. Test peptide (30 mg/kg) was injected via i.p. after bacterial challenge. The choice of dose was based on preliminary data obtained with lower doses (data not shown) and on results reported in the literature for structurally similar peptides. Control mice were given 0.2 ml of PBS. […] The analysis of survival curves was conducted using the Kaplan-Meyer method and successive statistical evaluation by the Logrank test. Significance of percentage differences among groups was assessed by using the Fisher exact test. Values of p < 0.05 were considered statistically significant.

As to “Bac7(1-35)-Alexa680: derivative of Bac7(1-35) fluorescently labelled with the dye Alexa680 via an added C-terminal cysteine (RRIRPRPPRLPRPRPRPLPFPRPGPRPIPRPLPFP-{C(Alexa Fluor 680 C2-maleimide)}; UniProt P19661 131-165, looked up, fragment)”, the “antimicrobial activity relative to the unlabelled peptide” value in data set [1] was “comparable”.
For `O=C(O)c1cn(C2CC2)c2cc(N3CCNCC3)c(F)cc2c1=O` [ciprofloxacin], the “prevention of fatal S. typhimurium disease” value in data set [2] is on record as “failed to prevent”.
Regarding “Drosocin: insect proline-rich AMP (GKPRPYSPRPTSHPRPIRV; ends and bridges not checked; UniProt P36193 22-40, looked up)”, in the data set with healthy animals / mice, the “dose at which completely devoid of toxicity” value was 100 mg/kg.
As for `CC[C@H](C)[C@H](NC(=O)[C@H](CCCNC(=N)N)NC(=O)[C@@H](N)CCCNC(=N)N)C(=O)N[C@@H](CCCNC(=N)N)C(=O)N1CCC[C@H]1C(=O)N[C@@H](CCCNC(=N)N)C(=O)N1CCC[C@H]1C(=O)N1CCC[C@H]1C(=O)N[C@@H](CCCNC(=N)N)C(=O)N[C@@H](CC(C)C)C(=O)N1CCC[C@H]1C(=O)N[C@@H](CCCNC(=N)N)C(=O)N1CCC[C@H]1C(=O)N[C@@H](CCCNC(=N)N)C(=O)N1CCC[C@H]1C(=O)N[C@@H](CCCNC(=N)N)C(=O)N1CCC[C@H]1C(=O)N[C@@H](CC(C)C)C(=O)N1CCC[C@H]1C(=O)N[C@@H](Cc1ccccc1)C(=O)N1CCC[C@H]1C(=O)N[C@@H](CCCNC(=N)N)C(=O)N1CCC[C@H]1C(=O)NCC(=O)N1CCC[C@H]1C(=O)N[C@@H](CCCNC(=N)N)C(=O)N1CCC[C@H]1C(=O)N[C@H](C(=O)N1CCC[C@H]1C(=O)N[C@@H](CCCNC(=N)N)C(=O)N1CCC[C@H]1C(=O)N[C@@H](CC(C)C)C(=O)N1CCC[C@H]1C(=O)N[C@@H](Cc1ccccc1)C(=O)N1CCC[C@H]1C(=O)O)[C@@H](C)CC` [Bac7(1-35)] (H-RRIRPRPPRLPRPRPRPLPFPRPGPRPIPRPLPFP-OH; N-terminus and C-terminus assumed), the “dose at which mice died” value in the data set on Balb/c and CBA/Ca mice (highest dose) came out at 150 mg/kg. Moreover, the “dose with no apparent toxic effect” value in the data set with Balb/c and CBA/Ca mice (monitored over 14 days) was “up to 75 mg/kg”. In addition, the “degradation in plasma relative to serum (immunodetection)” value in data set [3] (25% (v/v) murine plasma in PBS, up to 24 h) was “slower”. For the same compound, in data set [3] (25% (v/v) murine serum in PBS, 24 h incubation, 120 μg in 200 μL), the “band corresponding to intact peptide (immunodetection)” value is recorded as “disappeared”. The “peptide degradation in PBS alone” value in data set [4] is on record as “no peptide degradation was observed”. Further, the “degradation process in plasma relative to serum” value in the data set “in vitro” (25% (v/v) murine plasma in PBS, 37°C, LC-MS) is “slower in plasma than in serum”. For the same compound, in “in vitro” (25% (v/v) murine serum in PBS, 37°C, 8 h incubation, LC-MS), the “state of the peptide after 8 h” value was “almost completely degraded”. In addition, the metabolised at 1 h, 200 μg/mL in the data set “in vitro” (mouse, 25% (v/v) murine serum in PBS) came out at 10%. In addition, the “fraction of animals with bacteria undetectable in both spleen and liver” value in data set [5] is 1/3. In data set [5] (CBA/Ca mice), the “number of viable bacterial cells in liver and spleen homogenates” value is “decreased significantly”. The “reduction of the number of CFU” value is recorded as 2.5 log in [6] (in the absence of serum/plasma) and 0.5-1 log in data set [6] (with 66% murine serum or plasma, approx. 1 × 10^6 cells/ml, three independent determinations in triplicate). Moreover, the “bactericidal activity upon addition of BSA” value in [6] (40 mg/mL BSA, data not shown) is “did not change”. For the same compound, in data set [6] (without the presence of plasma/serum, 1 h), the “peptide concentration giving a CFU reduction comparable to 10 μM in serum/plasma” value came to 1 µM. For the same compound, the mean survival time in [7] (30 mg/kg i.p. after i.p. challenge with 1 × 10^2 CFU/mouse, 60 days monitoring, control 10 days, p = 0.01) turned out to be 24.5 days. The “infected mice completely cured (survival)” value in [7] (30 mg/kg i.p., 60 days, untreated 0%, p = 0.04) was found to be 36%.
